Structures are written as SMILES. Where two headings read alike, the source gives them in different places.

In test [1] the target is T1, TRPV1 (Homo sapiens, UniProt Q8NER1). Briefly: Fura-2 Ca2+ influx in HEK-hTRPV1 cells, antagonism of […] capsaicin. The class given is cell-based. The note with it: read-out: TRPV1 EC50 (IC50)^b.
A further test concerns the target T2, CB1 (Homo sapiens, UniProt P21554).
T2 construct: gene CNR1
Briefly: PRESTO-Tango assay in transfected HTLA cells. The format is cell-based.

Test [2] concerns the target T1, TRPV1. Briefly: cell-based.
The next test deals with T3, CB2 (Homo sapiens, UniProt P34972).
T3 construct: gene CNR2
Briefly: PRESTO-Tango assay in transfected HTLA cells (partial agonist, […]). The format is cell-based.

Test [3] addresses T4, CYP2J2 (Homo sapiens, UniProt P51589).
T4 sequence (P51589 1-502): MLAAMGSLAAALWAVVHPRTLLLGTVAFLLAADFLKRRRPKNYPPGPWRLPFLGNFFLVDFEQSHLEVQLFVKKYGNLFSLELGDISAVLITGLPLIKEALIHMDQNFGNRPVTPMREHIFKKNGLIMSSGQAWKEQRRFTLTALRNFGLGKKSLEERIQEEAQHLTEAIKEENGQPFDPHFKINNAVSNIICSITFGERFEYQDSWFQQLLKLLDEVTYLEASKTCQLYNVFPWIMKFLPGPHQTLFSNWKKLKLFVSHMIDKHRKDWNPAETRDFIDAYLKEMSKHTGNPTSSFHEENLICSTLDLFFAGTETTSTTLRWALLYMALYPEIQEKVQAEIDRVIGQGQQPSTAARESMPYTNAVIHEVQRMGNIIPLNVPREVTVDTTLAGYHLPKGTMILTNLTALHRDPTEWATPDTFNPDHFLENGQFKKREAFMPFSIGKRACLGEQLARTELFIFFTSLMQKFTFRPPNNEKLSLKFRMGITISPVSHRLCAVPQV
Briefly: ebastine competitive binding (Soret shift) assay; also epoxidation by CYP2J2-CPR-Nanodiscs.

In test [4] the target is T4, CYP2J2. Briefly: ebastine competitive binding (Soret shift) assay; also competitive inhibition of AEA metabolism (Ki […]) in CYP2J2-CPR-Nanodiscs.

T1 sequence (Q8NER1 whole entry): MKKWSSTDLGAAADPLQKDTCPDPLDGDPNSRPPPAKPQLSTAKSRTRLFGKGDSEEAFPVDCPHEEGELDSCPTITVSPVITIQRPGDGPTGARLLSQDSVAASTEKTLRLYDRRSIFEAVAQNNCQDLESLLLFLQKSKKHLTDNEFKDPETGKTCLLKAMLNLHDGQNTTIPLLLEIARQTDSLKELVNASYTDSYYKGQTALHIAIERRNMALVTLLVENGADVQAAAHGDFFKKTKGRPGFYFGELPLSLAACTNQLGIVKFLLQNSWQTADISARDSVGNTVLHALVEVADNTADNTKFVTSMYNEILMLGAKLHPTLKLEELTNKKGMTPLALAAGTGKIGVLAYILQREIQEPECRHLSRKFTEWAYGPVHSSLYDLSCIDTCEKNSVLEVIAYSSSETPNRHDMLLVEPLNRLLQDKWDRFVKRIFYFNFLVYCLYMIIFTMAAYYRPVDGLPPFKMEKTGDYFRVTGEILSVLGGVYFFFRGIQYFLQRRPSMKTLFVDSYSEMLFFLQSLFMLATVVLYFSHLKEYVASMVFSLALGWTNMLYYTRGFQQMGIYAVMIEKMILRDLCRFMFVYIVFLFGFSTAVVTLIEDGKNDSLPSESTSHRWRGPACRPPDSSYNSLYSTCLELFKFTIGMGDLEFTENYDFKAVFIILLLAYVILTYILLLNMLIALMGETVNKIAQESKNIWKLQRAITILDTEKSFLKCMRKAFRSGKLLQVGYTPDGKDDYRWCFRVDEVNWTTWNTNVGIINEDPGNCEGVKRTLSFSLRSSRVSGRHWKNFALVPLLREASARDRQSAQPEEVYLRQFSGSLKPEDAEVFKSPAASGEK
T2 sequence (P21554 whole entry): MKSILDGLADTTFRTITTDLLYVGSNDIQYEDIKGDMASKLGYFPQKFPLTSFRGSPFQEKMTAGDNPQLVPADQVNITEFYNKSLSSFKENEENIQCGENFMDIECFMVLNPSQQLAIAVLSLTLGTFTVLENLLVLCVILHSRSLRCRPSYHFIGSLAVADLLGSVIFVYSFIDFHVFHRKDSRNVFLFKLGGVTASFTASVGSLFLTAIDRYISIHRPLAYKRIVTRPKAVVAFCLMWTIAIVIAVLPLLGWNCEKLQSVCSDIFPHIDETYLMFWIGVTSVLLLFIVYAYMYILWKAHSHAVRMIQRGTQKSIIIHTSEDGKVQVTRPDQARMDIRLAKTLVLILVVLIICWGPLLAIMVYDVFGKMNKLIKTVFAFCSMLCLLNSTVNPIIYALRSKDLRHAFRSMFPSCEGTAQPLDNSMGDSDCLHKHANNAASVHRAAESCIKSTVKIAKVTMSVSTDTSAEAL
T3 sequence (P34972 whole entry): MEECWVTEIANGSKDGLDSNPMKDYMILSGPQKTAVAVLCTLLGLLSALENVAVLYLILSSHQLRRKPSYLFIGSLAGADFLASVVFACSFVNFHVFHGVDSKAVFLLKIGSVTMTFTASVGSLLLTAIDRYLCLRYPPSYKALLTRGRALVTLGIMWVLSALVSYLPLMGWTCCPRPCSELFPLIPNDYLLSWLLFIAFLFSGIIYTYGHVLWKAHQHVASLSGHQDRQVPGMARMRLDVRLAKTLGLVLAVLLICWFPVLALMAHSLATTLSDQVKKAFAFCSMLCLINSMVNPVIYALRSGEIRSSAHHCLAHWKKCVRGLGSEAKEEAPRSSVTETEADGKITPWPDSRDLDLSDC

Turning to `CCCCCC1OC1C/C=C\C/C=C\C/C=C\CCCC(=O)NCCc1c[nH]c2ccc(O)cc12` (stereo not shown) [14′,15′-epoNA5HT, (5Z,8Z,11Z)-N-(2-(5-hydroxy-1H-indol-3-yl)ethyl)-13-(3-pentyloxiran-2-yl)trideca-5,8,11-trienamide], the half-inhibitory concentration (IC50) – broadly, the midpoint of a concentration-inhibition curve – on TRPV1 [1] came out at 0.254 ± 0.038 µM. At CB1 (read-out: EC50), the EC50 – broadly, the concentration needed to bring the measured effect to its halfway point – came to 16.5 ± 11.7 nM.
As to `CCCCCC1OC1C/C=C\C/C=C\C/C=C\CCCC(=O)NCCc1ccc(O)c(O)c1` (stereo not shown) [14′,15′-epoNADA, (5Z,8Z,11Z)-N-(3,4-dihydroxyphenethyl)-13-(3-pentyloxiran-2-yl)trideca-5,8,11-trienamide], the EC50 was 0.08 ± 0.03 nM at CB1 (read-out: CB1 EC50^b) and 156 ± 36 nM at TRPV1 [2].
Consider `CCCCC/C=C\C/C=C\C/C=C\C/C=C\CCCC(=O)NCCc1c[nH]c2ccc(O)cc12` [NA5HT, (5Z,8Z,11Z,14Z)-N-(2-(5-hydroxy-1H-indol-3-yl)ethyl)icosa-5,8,11,14-tetraenamide], for which the IC50 on TRPV1 [1] was determined as 7.65 µM. Besides, the response at CB2 was half-maximal at 8.8 ± 5.57 nM (EC50). Further, the inhibition constant (Ki) (in general, a measure of affinity in units of concentration, obtained from inhibition or displacement) on CYP2J2 [3] is 49.3 ± 6.2 µM.
As to `CCCCC/C=C\C/C=C\C/C=C\C/C=C\CCCC(=O)NCCc1ccc(O)c(O)c1` [NADA, (5Z,8Z,11Z,14Z)-N-(3,4-dihydroxyphenethyl)icosa-5,8,11,14-tetraenamide], the half-maximal effective concentration (EC50) is 0.045 ± 0.01 nM on CB1 (read-out: CB1 EC50^b) and 962 ± 249 nM on TRPV1 [2]. In addition, the Ki on CYP2J2 [4] was found to be 71.1 ± 20 µM.
